Data on four compounds can be found in US6693128B2, “Substituted dicinnamoylquinides and their use in augmentation of adenonsine function” (Vanderbilt University, priority 2001, dated 2004).

In data set [1] the target is T1, human adenosine transporter (Homo sapiens, UniProt Q99808).
T1 construct: homogenates of U-937 cell culture (American Tissue Culture Compository), expressing the human (es) transporter; endogenous in cells; host or cells: U-937 (human) cell membrane homogenates
T1 sequence (Q99808 1-456): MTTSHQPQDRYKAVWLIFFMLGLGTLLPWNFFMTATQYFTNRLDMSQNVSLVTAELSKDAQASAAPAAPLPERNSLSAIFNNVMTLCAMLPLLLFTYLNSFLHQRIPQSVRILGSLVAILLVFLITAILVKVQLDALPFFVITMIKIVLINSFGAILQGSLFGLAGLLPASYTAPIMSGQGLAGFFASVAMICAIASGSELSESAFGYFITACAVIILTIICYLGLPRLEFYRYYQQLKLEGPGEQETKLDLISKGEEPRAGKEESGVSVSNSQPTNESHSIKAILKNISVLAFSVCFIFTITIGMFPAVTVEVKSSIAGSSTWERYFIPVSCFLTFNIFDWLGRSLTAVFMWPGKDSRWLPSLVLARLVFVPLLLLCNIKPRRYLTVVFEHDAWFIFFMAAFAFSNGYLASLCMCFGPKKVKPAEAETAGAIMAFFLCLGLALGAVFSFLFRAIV
Put plainly: Displacement of [3H]NBTI binding in U-937 cell homogenates. Particulars: mean ± SEM; for Ki: [3H]NBTI 2-4 nM, 50 mM TRIS pH 7.5, 4° C., 1.5 h, Cheng-Prusoff, read-out: Affinity (Ki μM); for Hill slope: log-logit analysis of competition binding data. How it is done:
Neurochem 39, 184-191 (1982), incorporated herein by reference. The cell membranes in final concentration of 0.03 mg protein/mL are incubated with [^3H]NBTI at 2-4 nM concentration in 50 mM TRIS buffer (pH 7.5) at 4° C. for 1.5 h in a total volume of 1.0 mL. Nonspecific binding is defined with 10 μM NBTI. Each determination is carried out in triplicate. Bound and free [^3H]NBTI are separated by vacuum filtration through fiberglass filters (Schleicher & Schuell, Keene, N.H.) that are presoaked with 0.3% polyethylenimine for 10 min, using a Brandel […] cell harvester. The filters are washed three times for 10 s with ice-cold 50 mM TRIS buffer and placed in 10 mL scintillation fluid (Cytoscint, ICN). Beta spectrometry is performed using a Beckman […] instrument at 47% counting efficiency. IC50 values and Hill slopes (nH) are calculated from log-logit analysis of competition binding data. Ki values of the competing ligand are calculated from IC50 values using the Cheng-Prusoff equation, Ki=IC50/(1+L/KD) […] Data are expressed as mean±standard error of the mean (SEM).

Data set [2] concerns the target T2, human (es) transporter (Homo sapiens, UniProt Q99808).
T2 construct: homogenates of U-937 cell culture (American Tissue Culture Compository), expressing the human (es) transporter; endogenous in cells; host or cells: U-937 (human) cell membrane homogenates
T2 sequence (Q99808 1-456): T1 sequence (Q99808 1-456)
The data set can be described thus: Inhibition of [3H]adenosine transport in homogenates of U-937 cell culture. Type of data set: biochemical. Particulars: 10 μM [3H]adenosine; U-937 cell homogenates; HEPES buffer, 37° C., 30 min; read-out: inhibitory constant Ki, transport of [3H]adenosine. How it is done: Inhibition of [^3H]adenosine transport in homogenates of U-937 cell culture (American Tissue Culture Compository), expressing the human (es) transporter is performed according to Gu et al, J. Neurochem 67, 972-977 (1996), which is incorporated herein by reference. Rate of transport is determined in HEPES buffer at 37° C. for 30 min (with choline replacing sodium). Full displacement curves for the adenosine transporter are obtained by using 8 concentrations of each compound, increasing by a factor of 2 and ranging from 0.25 μM-32 μM. Nonspecific transport is defined with 1 μM NBTI ((S)-(4-nitrobenzyl)-6-thioinosine). Cell cultures are grown in high glucose Dulbecco's modified Eagle's medium supplemented with NaHCO3 (40 mM), 10% fetal bovine serum (Gibco), 400 mg/L geneticin, and 0.1 mM hypoxanthine.
Briefly, the cells are cultured at 37° C. under a CO2/air (5/95, v/v) in tissue culture flasks (75 cm^2, Falcon). When reaching confluency (70-80%), cells are trypsinized and harvested by centrifugation. Harvested cells are re-suspended in 50 mM TRIS buffer at 4° C. (0.1 mg/mL), the cell membranes are disrupted by Polytron homogenization (12,500 rpm for 25 s), and the suspension is centrifuged at 30,000×g for 60 min. The supernatent is discarded and remaining the pellet is resuspended in 50 mM TRIS buffer to 0.2 mg-0.5 mg protein/mL and frozen at −80° C. until used. […]

`O=C(C=Cc1ccc(Cl)cc1)OC1CC2(O)CC(OC2=O)C1OC(=O)C=Cc1ccc(Cl)cc1` (stereo not drawn) [3,4-di(4-chlorocinnamoyl)-1,5-quinide] gave a melting point of 172 °C. For the same compound, in data set [1], the Ki came to 1.3 µM and the Hill slope amounted to 1.12 ± 0.00.
In turn, `COc1cc(C=CC(=O)OC2CC3(O)CC(OC3=O)C2OC(=O)C=Cc2ccc(O)c(OC)c2)ccc1O` (stereo not drawn) [3,4-diferuloyl-1,5-quinide] had a melting point of 142 to 144 °C. Further, the Ki in data set [2] was found to be 1200 nM. Also, in data set [1], the Ki is 0.96 ± 0.13 µM and the Hill slope stood at 0.94 ± 0.02.
In turn, `O=C(C=Cc1ccc(O)cc1)OC1CC2(O)CC(OC2=O)C1OC(=O)C=Cc1ccc(O)cc1` (stereo not drawn) [3,4-dicoumaroyl-1,5-quinide] came in with a melting point of 233 to 235 °C. In data set [1], the Ki was 0.96 ± 0.07 µM and the Hill slope is listed as 1.22 ± 0.11.
Consider `O=C(C=Cc1ccc(O)c(O)c1)OC1CC2(O)CC(OC2=O)C1OC(=O)C=Cc1ccc(O)c(O)c1` (stereo not drawn) [3,4-dicaffeoyl-1,5-quinide], for which, in data set [1], the Ki was found to be 2.4 ± 0.7 µM and the Hill slope is reported as 1.00 ± 0.03.
